Reference: US20180193361A1, “GUT ANTI-INFLAMMATORY AGENTS FOR REGULATION OF HIGH BLOOD GLUCOSE LEVELS” (UNIVERSITY HEALTH NETWORK, priority 2015, published 2018)

Experiments:
[1] = test system: gluconeogenesis enzyme and adipogenesis-related genes; test: q-PCR of gluconeogenesis and adipogenesis genes, HFD or HFD 5-ASA mice; type: in vivo
Description: We extracted total RNA from isolated or cultured cells using a RNeasy Mini Kit (Qiagen), and for subcutaneous adipose tissue (SAT) and VAT we used a RNeasy Lipid Extraction kit (Qiagen). We reverse-transcribed the RNA by random primers with M-MLV (Invitrogen). We performed q-PCR with a 7900HT PCR system (Applied Biosystems) using SYBR® Green master mix reagent (Applied Biosystems). We assessed expression of adipocyte P2 (aP2), CCAAT/enhancer-binding protein-α (CEBPα), Peroxisome proliferator-activated receptor-γ (PPARγ), and sterol regulatory element-binding protein (SREBP) cDNA. […] We calculated relative fold changes in gene expression normalized to 18s or GAPDH by the ΔΔCT method using the equation 2-ΔΔCT. The results are shown as fold changes compared to the control group.

[2] = HPLC of 5-ASA in serum and tissues with internal 4-ASA standard; type: in vivo, mice; settings: mouse, colon and small bowel relative to serum, oral
Experimental: We cut frozen tissues and homogenized them in 80% methanol (30 mg/mL) on ice. We spiked 100 μL aliquots with 4-ASA used as internal standard (200 ng), and 400 μL 80% methanol were added. For plasma, we thawed samples from −80° C. at room temperature. 75 μL plasma were spiked with 4-ASA used as internal standard (200 ng) and mixed with 300 μL of methanol for 5 minutes (vortex). Samples were centrifuged (20,000×g, 15 minutes, 4° C.). Supernatants were separated from the pellets and taken to dryness under nitrogen gas in the fumehood. We then reconstituted the dry residues in 200 μL of mobile phase, vortexed for 1 minute and centrifuged at 20,000×g for 15 minutes. The supernatants were transferred to autosampler vials fitted with inserts and sealed caps. Aliquots of the solution were injected into HPLC for analysis.
We performed high performance liquid chromatography using a Dionex Ultimate 3000 system equipped with a binary pump, a built-in autosampler, a photodiode array and a RF 2000 fluorescence detector. […] The analytes were monitored by fluorescence (excitation: 337 nm and emission: 432 nm) and by (UV235 nm). We analyzed the chromatograms produced using Chromeleon version 6.8 software.

[3] = test system: spleen and blood immune cells, serum cytokines; test: Systemic immune function during HFD feeding (spleen, blood, serum cytokines); type: in vivo, mice; settings: HFD vs HFD 5-ASA
Experimental: (§1) We stained single cell suspensions for 30 min on ice with commercial antibodies. Flow cytometry antibodies including CD45.2 (104), CD3 (145-2C11), CD4 (GK1.5), CD8 (53-6.7), CD25 (PC61), γδTcR (GL3), Foxp3 (150D), IL-17 (TC11-18H10.1), IFNγ XMG1.2), α4β7 (DATK32), CCR9 (CW-1.2), CD11b (M1/70), F4/80 (BM8), CD11c (N418), CD206 (C068C2), Gr-1 (RB6-8C5), IL-7Rα (A7R34), B220 (RA3-6B2), Thy1.2 (30-H12), NKp46 (29A1.4), and Sca-1 (D7) were purchased from Biolegend. Intracellular staining was performed using a Foxp3 staining buffer kit (eBioscience). We acquired data on a Fortessa flow cytometer (BD Biosciences) and analyzed it with FlowJo software (Tree Star). We gated ILCs as described (Kirchberger et al., 2013).
We measured serum cytokines by Luminex Multiplex cytokine assay (Millipore, run by the UHN Microarray Center), and quantified IL-10 and IFN-γ in supernatants of anti-CD3/CD28-stimulated splenocytes or bowel immune cells (Winer et al., 2009b) by ELISA (Biolegend).

[4] = test system: colon and small bowel lamina propria T cells; test: Flow cytometry of colon and small bowel lamina propria T cells, HFD or HFD 5-ASA; type: in vivo, mice; settings: HFD vs HFD 5-ASA 1500 mg/kg/day, 16 weeks
Description: (§2) Isolation of bowel immune cells. For isolation of small intestine lamina propria immune cells, we used the protocol described by Fritz et al (Fritz et al., 2012), and processed approximately 10 cm from the distal end of the small intestine (jejunum and ileum). For the isolation of colonic lamina propria immune cells, we used the protocol described by Geddes et al (Geddes et al., 2011). Following lamina propria isolations, we passed immune cells through 70 μm strainers, and used them for flow cytometry.
as §1

[5] = test system: gut epithelial barrier; settings: models of IBD (Di Paolo et al., 1996; Liu et al., 2009); cited from earlier work
[6] = test system: intestinal epithelial barrier; test: Gut permeability assay (FD4); type: in vivo, mice; settings: HFD vs HFD 5-ASA, 12-16 weeks of diet, 4 hours after gavage
Experimental: We measured gut permeability in overnight fasted mice 4 hours after oral gavage with 0.4 mg/g of FITC-conjugated dextran (Sigma) as described (Dong et al., 2014).

[7] = test system: small bowel T cells; test: In vitro IFNγ secretion, anti-CD3/CD28-activated small bowel T cells; type: cell-based; settings: T cells from HFD-fed WT mice, 72 hour; 5-ASA 0.1 mM; rosiglitazone 0.1, 1 and 10 μM
Experimental: (§3) To measure the effect of IFNγ on tight-junction gene expression, we treated MODE-K cells with recombinant mouse IFNγ (Biolegend). We purified bulk dendritic cells and T cells from murine small bowels and spleens using a negative selection DC or T cell isolation kit (Stem Cell Technologies). We plated T cells at 5×10^5 cells/well with plate-bound anti-CD3/CD28 (1 μg/ml, Biolegend). […] We collected supernatants for cytokine measurements after 72 hour incubation. […] After 24 hours, we washed the cells with PBS and co-cultured them (1×10^4 cells/well) with OVA323-339 peptide and OT-II splenic or small bowel T cells (5×10^4 cells/well) for 48 hours. Supernatants were collected at 48 hours for cytokine measurement. We measured serum cytokines by Luminex Multiplex cytokine assay (Millipore, run by the UHN Microarray Center), and quantified IL-10 and IFN-γ in supernatants of anti-CD3/CD28-stimulated splenocytes or bowel immune cells (Winer et al., 2009b) by ELISA (Biolegend).

[8] = test system: splenic T cells; test: In vitro IFNγ secretion, anti-CD3/CD28-activated splenic T cells; type: cell-based; settings: splenic T cells from HFD-fed WT mice, 72 hour; 5-ASA 0.1 mM
Experimental: as §3

[9] = test system: bowel and VAT immune cell populations; test: Immune cell populations in NCD vs NCD 5-ASA mice; type: in vivo; settings: bowels or VATs, NCD 5-ASA vs untreated NCD mice
Description: as §2
We isolated VAT-associated immune cells as previously described (Winer et al., 2009a).
as §1

[10] = test system: Rag1null mice; test: Metabolic studies, Rag1null mice on HFD 5-ASA; type: in vivo; settings: HFD vs HFD 5-ASA 1500 mg/kg/day, 8 weeks
Experimental: Mice. Mice were fed either NCD (15 kcal % fat) or HFD (Research Diets, 60 kcal % fat, irradiated) starting at 6 weeks of age. All studies were performed under the approval of Animal User Protocols by the Animal Care Committee at the University Health Network. Mice were maintained in a pathogen-free, temperature-controlled environment on a 12-hour light and dark cycle. All mice used in comparative studies were male, age-matched, and litter mates where possible.
We measured body weights, GTTs, ITTs, serum insulin, and fat cell diameter as previously described (Winer et al., 2009a). All GTTs were performed with a 1.5 g/kg glucose i.p. injection unless indicated otherwise.

With Nc1ccc(O)c(C(=O)O)c1 [5-ASA, 5-aminosalicylic acid] the “gluconeogenesis enzyme gene expression” value ([1]; HFD vs HFD 5-ASA 1500 mg/kg/day) was “could not detect significant changes”, the “expression of adipogenesis-related genes” value ([1]; VAT or SAT, HFD 5-ASA relative to HFD, 18 weeks of diet) was “no effects” and the Kp [2] was about 20. For the same compound, the “circulating immune cell polarity in the blood” value ([3]; 14 weeks) was “no effects”, the “immune cell populations in the spleen” value ([3]; 14 weeks) was “no effects” and the “serum levels of cytokines” value ([3]; Luminex, 23 cytokines, 14 weeks) was “mostly unchanged”. The “serum RANTES” value ([3]; Luminex, 14 weeks) was “significant but small increase”, the “serum TNFα” value ([3]; Luminex, 14 weeks) was “reduction” and the “stimulated spleen immune cell cytokine secretion” value ([3]; cultured splenocytes, anti-CD3/CD28 48 hrs) was “no effects”. For the same compound, the “IFNγ-secreting CD8+ T cells” value ([4]; colon and small bowel) was “reduction”, the “IL-17-secreting γδ T cells” value ([4]; colon and small bowel) was “reduction” and the Th1 cells ([4]; colon and small bowel) was “reduction”. The Tregs ([4]; small bowel) was “significant increase”, the “intactness of the gut epithelial barrier” value [5] was “beneficial effects” and the “intestinal epithelial barrier permeability (plasma FD4)” value [6] was “significant improvements”. For the same compound, the IFNγ production [7] was “significantly reduced”, the IFNγ production [8] was “not” and the “significant anti-inflammatory effects on immune cell populations” value [9] was “not seen”. The IR [10] was “no effect”, the body weight [10] was “no effect” and the glucose tolerance [10] was “no effect”.
